From article PMC11012124, “Synthesis of Novel Triazine-Based Chalcones and 8,9-dihydro-7H-pyrimido[4,5-b][1,4]diazepines as Potential Leads in the Search of Anticancer, Antibacterial and Antifungal Agents” (International Journal of Molecular Sciences, 2024)

Assays:
SF-295 = experiment: cells; conditions: Homo sapiens, SF-295, 48 h
DU-145 = experiment: cells; conditions: Homo sapiens, DU-145, 48 h
MDA-MB-231/ATCC = experiment: cells; conditions: Homo sapiens, MDA-MB-231, 48 h
CCRF-CEM = experiment: cells; conditions: Homo sapiens, 48 h
HCT-116 = experiment: cells; conditions: Homo sapiens, HCT-116, 48 h
[1] = Hemolytic activity, spectrophotometric; assay type: cell-based, human; conditions: human, human red blood cells (huRBC), 5% hematocrit, 200 μg/mL, 37 °C
UACC-62 = experiment: cells; conditions: Homo sapiens, UACC-62, 48 h
NCI-H226 = experiment: cells; conditions: Homo sapiens, NCI-H226, 48 h
UACC-257 = experiment: cells; conditions: Homo sapiens, UACC-257, 48 h
HS 578T = experiment: cells; conditions: Homo sapiens, 48 h
MDA-MB-435 = experiment: cells; conditions: Homo sapiens, MDA-MB-435, 48 h
SF-539 = experiment: cells; conditions: Homo sapiens, SF-539, 48 h
ACHN = experiment: cells; conditions: Homo sapiens, 48 h
LOX IMVI = experiment: cells; conditions: Homo sapiens, 48 h
60 cancer cell lines = experiment: NCI-60 one-dose screen (10 μM); assay type: cell-based; conditions: Homo sapiens; one dose of 10 μM, mean over 60 cancer cell lines; read-out: Mean Growth Percent (MGP)
Excerpt: Additionally, the mean of the growth percentages (MGP) of each compound against all the 60 cancer cell lines is also reported, which is used as one of the selection criteria to continue with tests at five concentration doses.

T-47D = experiment: cells; conditions: Homo sapiens, T47D, 48 h
NCI-H322M = experiment: cells; conditions: Homo sapiens, 48 h
SF-268 = experiment: cells; conditions: Homo sapiens, SF-268, 48 h
HOP-62 = experiment: cells; conditions: Homo sapiens, HOP-62, 48 h
OVCAR-4 = experiment: cells; conditions: Homo sapiens, OVCAR-4, 48 h
COLO 205 = experiment: cells; conditions: Homo sapiens, COLO 205, 48 h
SN12C = experiment: cells; conditions: Homo sapiens, 48 h
OVCAR-3 = experiment: cells; conditions: Homo sapiens, OVCAR-3, 48 h
OVCAR-8 = experiment: cells; conditions: Homo sapiens, OVCAR-8, 48 h
HT29 = experiment: cells; conditions: Homo sapiens, HT-29, 48 h
MOLT-4 = experiment: cells; conditions: Homo sapiens, MOLT-4, 48 h
EKVX = experiment: cells; conditions: Homo sapiens, 48 h
UO-31 = experiment: cells; conditions: Homo sapiens, UO-31, 48 h
U251 = experiment: cells; conditions: Homo sapiens, U-251, 48 h
MALME-3M = experiment: cells; conditions: Homo sapiens, 48 h
BT-549 = experiment: cells; conditions: Homo sapiens, BT-549, 48 h
M14 = experiment: cells; conditions: Homo sapiens, M14, 48 h
OVCAR-5 = experiment: cells; conditions: Homo sapiens, OVCAR-5, 48 h
HL-60(TB) = experiment: cells; conditions: Homo sapiens, HL-60, 48 h
A498 = experiment: cells; conditions: Homo sapiens, A498, 48 h
PC-3 = experiment: cells; conditions: Homo sapiens, PC-3, 48 h
MCF7 = experiment: cells; conditions: Homo sapiens, MCF7, 48 h
RPMI-8226 = experiment: cells; conditions: Homo sapiens, RPMI-8226, 48 h

## COc1cc(/C=C/C(=O)c2cc(OC)c(OC)c(OC)c2)ccc1Oc1nc(NCCO)nc(N2CCOCC2)n1 [20d]
SF-295
  GI50: 2.9 µM
SF-295; read-out: LC50
  CC50: 35.2 µM
DU-145
  GI50: 2.99 µM
DU-145; read-out: LC50
  CC50: 35.3 µM
MDA-MB-231/ATCC
  GI50: 2.86 µM
MDA-MB-231/ATCC; read-out: LC50
  CC50: 35.4 µM
CCRF-CEM
  GI50: 2.38 µM
CCRF-CEM; read-out: LC50
  CC50: > 100 µM
HCT-116
  GI50: 1.53 µM
HCT-116; read-out: LC50
  CC50: 6.78 µM
[1]
  hemolysis at 24 h, 200 µg/mL: 1.2%
UACC-62
  GI50: 1.69 µM
UACC-62; read-out: LC50
  CC50: 6.03 µM
NCI-H226
  GI50: 3.69 µM
NCI-H226; read-out: LC50
  CC50: > 100 µM
UACC-257
  GI50: 2.83 µM
UACC-257; read-out: LC50
  CC50: 36.7 µM
HS 578T
  GI50: 3.62 µM
HS 578T; read-out: LC50
  CC50: > 100 µM
MDA-MB-435
  GI50: 3.1 µM
MDA-MB-435; read-out: LC50
  CC50: 35.1 µM
SF-539
  GI50: 1.88 µM
SF-539; read-out: LC50, SF-539, 48 h
  CC50: 13 µM
ACHN
  GI50: 1.64 µM
ACHN; read-out: LC50
  CC50: 7.9 µM
LOX IMVI
  GI50: 0.642 µM
LOX IMVI; read-out: LC50, LOX IMVI, 48 h
  CC50: 4.99 µM
60 cancer cell lines
  activity at 10 µM: 0.79%
T-47D
  GI50: 3.12 µM
T-47D; read-out: LC50
  CC50: 39.9 µM
NCI-H322M
  GI50: 2.91 µM
NCI-H322M; read-out: LC50
  CC50: 29.3 µM
SF-268
  GI50: 3.02 µM
SF-268; read-out: LC50
  CC50: 71.8 µM
HOP-62
  GI50: 2.35 µM
HOP-62; read-out: LC50
  CC50: 22.4 µM
OVCAR-4
  GI50: 2.92 µM
OVCAR-4; read-out: LC50
  CC50: 33.4 µM
COLO 205
  GI50: 2.1 µM
COLO 205; read-out: LC50
  CC50: 9.18 µM
SN12C
  GI50: 1.79 µM
SN12C; read-out: LC50
  CC50: 23.3 µM
OVCAR-3
  GI50: 3.2 µM
OVCAR-3; read-out: LC50
  CC50: 34.4 µM
OVCAR-8
  GI50: 2.56 µM
OVCAR-8; read-out: LC50
  CC50: 34.7 µM
HT29
  GI50: 2.83 µM
HT29; read-out: LC50
  CC50: 32.9 µM
MOLT-4
  GI50: 1.98 µM
MOLT-4; read-out: LC50
  CC50: > 100 µM
EKVX
  GI50: 2.81 µM
EKVX; read-out: LC50
  CC50: 36.6 µM
UO-31
  GI50: 1.66 µM
UO-31; read-out: LC50
  CC50: 6.5 µM
U251; U251, 48 h
  GI50: 1.62 µM
U251; read-out: LC50
  CC50: 6.02 µM
MALME-3M
  GI50: 2.67 µM
MALME-3M; read-out: LC50
  CC50: 24.3 µM
BT-549
  GI50: 1.6 µM
BT-549; read-out: LC50
  CC50: 6.88 µM
M14
  GI50: 2.38 µM
M14; read-out: LC50
  CC50: 37.9 µM
OVCAR-5
  GI50: 3.14 µM
OVCAR-5; read-out: LC50
  CC50: 38.4 µM
HL-60(TB)
  GI50: 1.54 µM
HL-60(TB); read-out: LC50
  CC50: > 100 µM
A498
  GI50: 3.58 µM
A498; read-out: LC50
  CC50: 37 µM
PC-3
  GI50: 3.11 µM
PC-3; read-out: LC50
  CC50: 43.2 µM
MCF7
  GI50: 1.72 µM
MCF7; read-out: LC50
  CC50: 61.5 µM
RPMI-8226
  GI50: 1.63 µM
RPMI-8226; read-out: LC50
  CC50: > 100 µM
